Test results reported in US10759774B2, “Inhibitors of hepatitis B virus targeting capsid assembly” (THE CURATORS OF THE UNIVERSITY OF MISSOURI, priority 2017, dated 2020).

Columns and labels:
HBV [1] = details: rodent models; cited from earlier work
[2] = high doses; cited from earlier work
[3] = system: primary human hepatocytes; details: cited from earlier work
HBV [4] = test: Antiviral screening / dose response, total intracellular HBV DNA by qPCR in HepAD38 cells; assay type: cell-based, hepatitis B virus (HBV); details: for SI (Selectivity Index): CC50/EC50; for SI (Selectivity Index) / EC50: Table 1; for EC50: Hepatitis B virus, HepAD38 cells, total intracellular HBV DNA as marker
Experimental: HepAD38 cells (ATCC; Ladner, et al., Antimicrob. Agents Chemother. 41:1715-1720, 1997) were maintained in tet media [Dulbecco's Modified Eagle Medium (DMEM) and 10% fetal bovine serum (FBS) plus 0.4 μg/ml tetracycline (tet) and 400 μg/ml G418 (Gibco; Gaithersburg, Md.)]. Cells were incubated at 37° C. with 5% CO2.
Total DNA from HBV-infected cells was extracted using the QIAamp DNA Blood Mini Kit (Qiagen, Germantown, Md.). […] Amplification was conducted by denaturation at 95° C. for 10 min, followed by 40 cycles of denaturation at 95° C. for 15 s and annealing/extension at 60° C. for 1 min using PerfeCTa SYBR® Green FastMix reaction cocktail (Quanta Biosciences, Beverly, Mass.). Amplification was carried out in a PIKOREAL™ Real-Time PCR System. A standard curve was generated with dilutions of the HBV genome-containing plasmid pCMV-HBV-LE-II (Tavis, et al., PLoS Pathogens 9:e1003125, 2013).
(§1) HepAD38 cells (5×10^4) were plated in 96-well plates in tet media. The next day, cells were washed 2× with PBS, and the media was replaced with complete media (DMEM, 10% FBS) containing compounds. Fresh complete media with compounds was added again after 2 days. After 2 additional days, cells were washed with PBS, trypsinized, and pelleted by centrifugation. The cell pellet was resuspended in 200 μl PBS, and DNA was extracted and analyzed as above. For dose responses, values were plotted in GraphPad Prism 5 and analyzed with the log (inhibitor) vs. normalized response—variable slope equation.
For antiviral screening, HepAD38 cells were treated with 10 μM of each hit compound, and anti-HBV activity was determined by the level of viral DNA.

HBV [5] = test: Cell-based anti-HBV activity of HF9C6 analogs (Table 2; HBV DNA in HepAD38 cells); details: Hepatitis B virus, Table 2, cell-based, read-out: EC50
Experimental: as §1
HepAD38 cells were seeded in 96-well plates (3×10^4 cells/well) in tet media. […] After 2 days, the media was removed, and fresh media containing compounds was added. After 2 additional days, cells were washed with PBS and lysed with 10 mM Tris (pH 7.5), 1mM EDTA, 100mM NaCl, 1% NP-40 at 37° C. for 30 min. 60 μl of lysate was added to 60 μl of 1 M NaOH, 1.5 M NaCl and incubated at RT for 5 min to denature DNA. 120 μl of 1 M Tris (pH 7.4), 2 M NaCl was added. Samples were transferred to positively charged nylon membranes (Roche) using a vacuum dot blot manifold. The wells were washed with 200 μl of 20× SSC (3M NaCl, 300 mM sodium citrate), and the DNA was UV crosslinked to the membranes. […] Membranes were incubated with CDP-STAR® chemiluminescent substrate (Roche), imaged by chemiluminescence, and quantified by densitometry. Values were plotted in GraphPad Prism 5 and analyzed with the log (inhibitor) vs. normalized response—variable slope equation.

[6] = Cytotoxicity, Cell Proliferation Kit II (XTT) (Table 2); assay type: cell-based; details: human, HepG2 cells
[7] = biological target: T1, C1502 (HBV capsid protein assembly domain dimer) (Hepatitis B virus genotype D subtype adw, UniProt P03147, R150C); test: In vitro capsid assembly analyzed by transmission electron microscopy (TEM); assay type: biochemical; details: C1502 10 μM assembled with compound 20 μM
T1 construct: the 149 amino acid assembly domain of HBV capsid protein; made in house; host or cells: E. coli BL21 (DE3), pET11a
Description: Capsids assembled in the presence of the carrier DMSO were spherical, ˜40 nm in diameter, and dispersed across the TEM grid.

HBV wild-type (WT) Cp = test: HBV core-associated DNA by qPCR in Huh7 cells transfected with wild-type plasmid; assay type: cell-based, hepatitis B virus (HBV); details: Bay 38-7690 500 nM, DVR-56 250 nM, ZW-935 250 nM, HF9C6 4 μM
HBV Cp I105V mutant = test: HBV core-associated DNA by qPCR in Huh7 cells transfected with Cp mutant plasmid; assay type: cell-based, hepatitis B virus (HBV); details: single dose: DVR-56 250 nM, ZW-935 250 nM, HF9C6 4 μM
Description: (§2) The binding site for HAPs and SBAs has been found using X-ray crystallography and mutagenesis techniques. […] To probe this binding site, HBV-expressing plasmids with mutations in Cp (Y118F, T109S, T109M, T109I, I105V, I105L, and I105T) were generated (Klumpp, et al., Proc. Natl. Acad. Sci. USA 112:15196-15201, 2015).

HBV Cp T109I mutant = test: as above; assay type: cell-based, hepatitis B virus (HBV); details: single dose: Bay 38-7690 500 nM, DVR-56 250 nM, ZW-935 250 nM, HF9C6 4 μM
Description: as §2

HBV Cp T109S mutant = test: as above; assay type: cell-based, hepatitis B virus (HBV); details: single dose: Bay 38-7690 500 nM, DVR-56 250 nM, ZW-935 250 nM, HF9C6 4 μM
Description: as §2

HBV capsid protein (Cp) [8] = biological target: T2, HBV capsid protein (Cp) (Hepatitis B virus genotype D subtype ayw, UniProt P03146); details: HepAD38 cells; concentrations up to 20 μM (~5×EC50)
HBV capsid protein (Cp) [9] = biological target: T2, HBV capsid protein (Cp); details: HepAD38 cells; 20 μM
[10] = Cytotoxicity with the XTT assay (Table 1); details: human, HepAD38 cells
HepAD38 cells = test: Cytotoxicity with the XTT assay (Table 1)
HBV [11] = details: cited from earlier work

COC(=O)C1=C(C)NC(c2ncc(F)cc2F)=N[C@H]1c1ccc(F)cc1Cl [Bay 41-4109]
inhibition of the virus replication cycle (HBV [1]): inhibit the virus replication cycle
hepatotoxicity [2]: hepatotoxic

CCOC(=O)C1=C(CN2CCOCC2)NC(c2nccs2)=NC1c1ccc(F)cc1Br (stereo not drawn) [GLS-4, morphothiadine mesilate]
toxicity to primary human hepatocytes [3]: much less toxic

Cc1c(C(=O)Nc2ccccc2)sc(N)c1C(N)=O [HF9C6]
SI (Selectivity Index) (HBV [4]): >83
reduction of HBV DNA (HBV [4]; HepAD38 cells treated with 10 μM, vs DMSO control): ~80%
EC50 (HBV [4]): 3.6 ± 0.2 µM
EC50 (HBV [5]): 34 ± 0.6 µM
CC50 [6]: > 100 µM
capsid morphology by TEM [7]: heterogeneous in shape and size, and formed large aggregates on the grid
suppression of viral DNA production (HBV wild-type (WT) Cp): 75%
resistance profile, I105V mutant (HBV Cp I105V mutant): does not impart significant resistance
resistance profile, T109I mutant (HBV Cp T109I mutant): hypersusceptibility
resistance profile, T109S mutant (HBV Cp T109S mutant): resistance
Cp levels (Western blot) (HBV capsid protein (Cp) [8]): did not reduce Cp levels
Cp distribution/aggregation in cells (HBV capsid protein (Cp) [9]): concentrated in large foci throughout the cell
Cp nuclear localization (HBV capsid protein (Cp) [9]): excluded from the nucleus
CC50 [10]: > 300 µM
cytotoxicity (in words) (HepAD38 cells): no observable cytotoxicity

Nc1ccn([C@@H]2CS[C@H](CO)O2)c(=O)n1 [Lamivudine (3TC), Lamivudine, reference compound]
SI (Selectivity Index) (HBV [4]): >1,111
EC50 (HBV [4]): 0.09 ± 0.01 µM
CC50 [10]: > 100 µM

Cc1cc(NC(=O)c2sc(N)c(C(N)=O)c2C)ccc1F [ZW-935, 5-Amino-N2-(4-fluoro-3-methylphenyl)-3-methylthiophene-2,4-dicarboxamide]
CC50 [6]: > 100 µM
suppression of viral DNA production (HBV wild-type (WT) Cp): 75%
resistance profile, I105V mutant (HBV Cp I105V mutant): does not impart significant resistance
resistance profile, T109I mutant (HBV Cp T109I mutant): hypersusceptibility
resistance profile, T109S mutant (HBV Cp T109S mutant): resistance

IFN-α
virological response, share of patients (HBV [11]): < 10%
